Patent US8071570B2, “Mixtures of polysaccharides derived from heparin, their preparation and pharmaceutical compositions containing them” (Aventis Pharma S.A., priority 2002, dated 2011)

Experiments:
[1] = test system: activated factor X (factor Xa); assay: anti-Xa activity, amidolytic method on a chromogenic substrate; type: biochemical; conditions: isolated hexasaccharide
Procedure: The anti-Xa activity is measured by the amidolytic method on a chromogenic substrate described by Teien et al., Thromb. Res., 10, 399-410 (1977), with, as standard, the first international standard for low-molecular-weight heparins. See Barrowcliffe, T. W., A. D. Curtis, et al. (1985). “Standardization of Low Molecular Weight Heparins: A Collaborative Study.” Thrombosis and Haemostasis 54: 675-679; and Barrowcliffe, T. W. (1988). “An International Standard for Low Molecular Weight Heparin.” Thrombosis and Haemostasis 60:1-7.

[2] = biological target: ATIII (Homo sapiens, UniProt P01008)
Sequence of ATIII (P01008 33-464, species assumed): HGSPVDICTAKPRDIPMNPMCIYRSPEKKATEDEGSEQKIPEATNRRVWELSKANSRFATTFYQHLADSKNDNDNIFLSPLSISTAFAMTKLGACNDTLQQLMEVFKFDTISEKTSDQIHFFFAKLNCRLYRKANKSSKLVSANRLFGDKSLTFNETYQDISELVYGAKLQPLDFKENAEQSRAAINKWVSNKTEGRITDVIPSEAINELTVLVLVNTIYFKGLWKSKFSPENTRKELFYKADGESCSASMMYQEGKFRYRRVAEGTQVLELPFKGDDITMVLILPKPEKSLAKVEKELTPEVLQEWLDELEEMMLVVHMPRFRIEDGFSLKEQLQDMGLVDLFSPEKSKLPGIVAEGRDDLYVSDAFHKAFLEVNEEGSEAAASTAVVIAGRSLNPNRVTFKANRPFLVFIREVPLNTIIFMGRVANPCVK

SMILES: CC(=O)N[C@H]1[C@@H](O[C@H]2[C@H](O)[C@@H](O)[C@H](O[C@H]3[C@H](OS(=O)(=O)O)[C@@H](NS(=O)(=O)O)[C@@H](O[C@H]4[C@H](O)[C@@H](OS(=O)(=O)O)[C@H](O[C@H]5[C@H](O)[C@@H](NS(=O)(=O)O)[C@@H](O)O[C@@H]5COS(=O)(=O)O)O[C@H]4C(=O)O)O[C@@H]3COS(=O)(=O)O)O[C@@H]2C(=O)O)O[C@H](COS(=O)(=O)O)[C@@H](O[C@@H]2OC(C(=O)O)=C[C@H](O)[C@H]2O)[C@@H]1O [hexasaccharide ΔIIa-IIs-Is]
- aXa activity [1]: greater than 740 U/mg
- affinity for ATIII [2]: high affinity
